# Patent US20240269139A1, “COMPOUNDS FOR TARGETED PROTEIN DEGRADATION OF KINASES” (DANA-FARBER CANCER INSTITUTE, INC., priority 2020, published 2024)
# Where two headings read alike, the source gives them in different places.
# Tests used:
# [1] = target: T1, extended human kinome (kinase-like proteins) (Homo sapiens, UniProt Q7L8L6); experiment: Whole cell quantitative proteomics: extended kinome hits; details: Accession Q7L8L6
# T1 sequence (Q7L8L6 28-764): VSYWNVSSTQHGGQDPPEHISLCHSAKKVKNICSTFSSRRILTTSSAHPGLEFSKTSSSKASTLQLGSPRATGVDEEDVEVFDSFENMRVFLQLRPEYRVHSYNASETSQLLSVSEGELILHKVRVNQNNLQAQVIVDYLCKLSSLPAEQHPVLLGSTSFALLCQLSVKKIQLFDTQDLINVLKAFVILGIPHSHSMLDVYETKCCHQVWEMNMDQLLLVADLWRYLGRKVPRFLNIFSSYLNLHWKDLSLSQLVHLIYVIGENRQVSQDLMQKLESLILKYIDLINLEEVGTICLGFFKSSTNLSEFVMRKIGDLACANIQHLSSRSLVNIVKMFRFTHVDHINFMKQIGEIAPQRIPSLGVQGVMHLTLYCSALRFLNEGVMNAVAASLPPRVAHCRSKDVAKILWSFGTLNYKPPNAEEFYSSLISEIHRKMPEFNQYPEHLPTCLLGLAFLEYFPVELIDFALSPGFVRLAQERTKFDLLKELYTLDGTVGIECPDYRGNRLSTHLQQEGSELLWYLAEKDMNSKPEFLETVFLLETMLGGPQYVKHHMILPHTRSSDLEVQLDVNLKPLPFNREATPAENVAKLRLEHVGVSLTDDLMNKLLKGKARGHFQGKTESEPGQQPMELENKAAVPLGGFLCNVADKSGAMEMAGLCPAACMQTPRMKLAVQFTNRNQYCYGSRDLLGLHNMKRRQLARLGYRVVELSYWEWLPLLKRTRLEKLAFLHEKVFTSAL
# Protocol: (§1) Whole cell multiplexed quantitative proteomics was employed to measure changes in abundance of the proteome in response to treatment with each of the kinase degrader molecules relative to DMSO (Table 1, Appendix I).
# (§2) Cells were treated with DMSO (biological triplicate) or degrader at indicated dose and time and cells were harvested by centrifugation. […] Precipitated protein was resuspended in 4 M Urea, 50 mM HEPES pH 7.4, followed by dilution to 1 M urea with the addition of 200 mM EPPS, pH 8. Proteins were first digested with LysC (1:50: enzyme:protein) for 12 hours at room temperature. The LysC digestion was diluted to 0.5 M Urea with 200 mM EPPS pH 8 followed by digestion with trypsin (1:50; enzyme:protein) for 6 hours at 37° C. Tandem mass tag (TMT) reagents (Thermo Fisher Scientific) were dissolved in anhydrous acetonitrile (ACN) according to manufacturer's instructions. […] The 10, 11, or 16-plex labeling reactions were performed for 1.5 hours at room temperature and the reaction quenched by the addition of hydroxylamine to a final concentration of 0.3% for 15 minutes at room temperature. The sample channels were combined at a 1:1 ratio, desalted using C18 solid phase extraction cartridges (Waters®) and analyzed by LC-MS for channel ratio comparison. Samples were then combined using the adjusted volumes determined in the channel ratio analysis and dried down in a speed vacuum. The combined sample was then resuspended in 1% formic acid, and acidified (pH 2-3) before being subjected to desalting with C18 SPE (Sep-Pak®, Waters®). Samples were then offline fractionated into 96 fractions by high pH reverse-phase HPLC (Agilent® LC1260) through an aeris peptide xb-c18 column (Phenomenex®) with mobile phase A containing 5% acetonitrile and 10 mM NH4HCO3 in LC-MS grade H2O, and mobile phase B containing 90% acetonitrile and 10 mM NH4HCO3 in LC-MS grade H2O (both pH 8.0). The 96 resulting fractions were then pooled in a non-continuous manner into 24 fractions and desalted using C18 solid phase extraction plates (SOLA®, Thermo Fisher Scientific) followed by subsequent mass spectrometry analysis.
# (§3) Data were collected using an Orbitrap Fusion™ Lumos™ mass spectrometer (Thermo Fisher Scientific, San Jose, CA, USA) coupled with a Proxeon EASY-nLC™ 1200 LC pump (Thermo Fisher Scientific) or an Orbitrap Eclipse™ Tribrid™ mass spectrometer (Thermo Fisher Scientific, San Jose, CA, USA) coupled with an UltiMate™ 3000 RSLCnano System. Peptides were separated on an EasySpray™ ES803a/ES803a.rev2 75 μm inner diameter microcapillary column (ThermoFisher Scientific).
# (§4) Data dependent MS2 spectra were acquired in the ion trap with a normalized collision energy (NCE) set at 35%, AGC target set to 1.8×10^4 and a maximum injection time of 120 ms. MS3 scans were acquired in the Orbitrap with HCD collision energy set to 55%. AGC target set to 2×10^5, maximum injection time of 150 ms, resolution at 50,000 and with a maximum synchronous precursor selection (SPS) precursors set to 10.
# (§5) Proteome Discoverer™ 2.1, 2.2 or 2.4 (Thermo Fisher Scientific) was used for .RAW file processing and controlling peptide and protein level false discovery rates, assembling proteins from peptides, and protein quantification from peptides.
# [2] = target: extended human kinome (kinase-like proteins) (Homo sapiens, UniProt Q9UIJ7); experiment: as above
# Protocol: as §1, §2, §3, §4, §5
# [3] = target: extended human kinome (kinase-like proteins) (Homo sapiens, UniProt P27144); experiment: as above
# Protocol: as §1, §2, §3, §4, §5
# [4] = target: T2, extended human kinome (kinase-like proteins) (Homo sapiens, UniProt Q53R41); experiment: as above
# T2 sequence (Q53R41 1-847): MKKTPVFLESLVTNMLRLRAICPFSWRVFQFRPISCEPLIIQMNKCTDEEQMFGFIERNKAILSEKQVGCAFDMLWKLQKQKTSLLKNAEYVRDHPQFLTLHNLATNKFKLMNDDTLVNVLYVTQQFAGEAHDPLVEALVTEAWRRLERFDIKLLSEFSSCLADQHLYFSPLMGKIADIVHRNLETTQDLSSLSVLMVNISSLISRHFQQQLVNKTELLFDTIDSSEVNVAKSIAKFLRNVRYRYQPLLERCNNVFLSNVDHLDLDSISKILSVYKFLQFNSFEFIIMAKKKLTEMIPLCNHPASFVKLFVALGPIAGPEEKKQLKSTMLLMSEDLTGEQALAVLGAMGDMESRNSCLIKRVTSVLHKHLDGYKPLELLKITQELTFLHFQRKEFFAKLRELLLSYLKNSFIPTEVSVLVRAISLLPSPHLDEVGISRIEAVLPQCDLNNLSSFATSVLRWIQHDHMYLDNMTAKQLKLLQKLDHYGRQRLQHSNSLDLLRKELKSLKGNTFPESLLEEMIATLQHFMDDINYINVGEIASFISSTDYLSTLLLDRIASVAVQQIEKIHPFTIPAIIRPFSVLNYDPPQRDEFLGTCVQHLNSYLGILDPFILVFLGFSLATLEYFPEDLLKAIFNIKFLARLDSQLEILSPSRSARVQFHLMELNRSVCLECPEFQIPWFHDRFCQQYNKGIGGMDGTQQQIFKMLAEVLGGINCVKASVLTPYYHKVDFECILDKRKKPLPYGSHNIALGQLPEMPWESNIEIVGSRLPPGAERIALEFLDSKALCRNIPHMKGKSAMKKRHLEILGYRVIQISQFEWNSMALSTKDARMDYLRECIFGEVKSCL
# Protocol: as §1, §2, §3, §4, §5
# [5] = target: extended human kinome (kinase-like proteins) (Homo sapiens, UniProt Q16875); experiment: as above; details: Accession Q16875
# Protocol: as §1, §2, §3, §4, §5
# [6] = target: protein kinases (human kinome) (Homo sapiens, UniProt Q8TDR2); assay type: cell-based
# [7] = target: T3, protein kinases (human kinome) (Homo sapiens, UniProt O94768); assay type: cell-based; details: for logFC STK17B (O94768): direction down; for logFC: STK17B (O94768)
# T3 sequence (O94768 1-372): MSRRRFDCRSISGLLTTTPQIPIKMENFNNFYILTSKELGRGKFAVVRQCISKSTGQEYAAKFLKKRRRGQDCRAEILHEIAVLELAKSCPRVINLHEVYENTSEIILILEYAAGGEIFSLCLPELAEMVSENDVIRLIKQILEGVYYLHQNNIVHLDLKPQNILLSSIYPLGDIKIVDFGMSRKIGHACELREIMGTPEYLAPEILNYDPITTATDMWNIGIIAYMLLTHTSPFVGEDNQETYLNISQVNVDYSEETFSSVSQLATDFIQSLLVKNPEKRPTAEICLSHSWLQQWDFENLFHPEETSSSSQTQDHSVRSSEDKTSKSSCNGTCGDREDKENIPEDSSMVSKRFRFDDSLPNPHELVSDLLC
# Sequence of extended human kinome (kinase-like proteins) (Homo sapiens, UniProt Q16875) (Q16875 whole entry): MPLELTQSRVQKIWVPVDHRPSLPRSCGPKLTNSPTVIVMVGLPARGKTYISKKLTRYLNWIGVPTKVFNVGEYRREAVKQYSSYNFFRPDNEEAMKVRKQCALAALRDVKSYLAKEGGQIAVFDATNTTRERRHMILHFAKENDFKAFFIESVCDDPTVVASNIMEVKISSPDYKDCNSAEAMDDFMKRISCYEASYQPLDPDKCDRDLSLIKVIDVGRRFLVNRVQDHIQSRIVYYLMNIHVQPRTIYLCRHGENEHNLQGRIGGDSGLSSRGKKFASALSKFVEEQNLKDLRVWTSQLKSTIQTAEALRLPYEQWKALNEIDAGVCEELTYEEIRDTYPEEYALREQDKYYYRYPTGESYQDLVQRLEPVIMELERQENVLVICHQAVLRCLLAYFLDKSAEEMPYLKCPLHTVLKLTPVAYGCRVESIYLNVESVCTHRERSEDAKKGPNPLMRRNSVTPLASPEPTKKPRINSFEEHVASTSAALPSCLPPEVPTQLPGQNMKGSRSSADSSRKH
# Sequence of extended human kinome (kinase-like proteins) (Homo sapiens, UniProt P27144) (P27144 whole entry): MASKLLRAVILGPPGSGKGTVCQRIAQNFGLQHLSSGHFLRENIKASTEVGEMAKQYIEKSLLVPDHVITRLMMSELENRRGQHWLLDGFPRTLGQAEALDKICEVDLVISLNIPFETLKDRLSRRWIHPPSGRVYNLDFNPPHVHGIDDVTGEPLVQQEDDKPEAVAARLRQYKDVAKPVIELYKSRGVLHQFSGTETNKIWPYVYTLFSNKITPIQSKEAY
# Sequence of extended human kinome (kinase-like proteins) (Homo sapiens, UniProt Q9UIJ7) (Q9UIJ7 whole entry): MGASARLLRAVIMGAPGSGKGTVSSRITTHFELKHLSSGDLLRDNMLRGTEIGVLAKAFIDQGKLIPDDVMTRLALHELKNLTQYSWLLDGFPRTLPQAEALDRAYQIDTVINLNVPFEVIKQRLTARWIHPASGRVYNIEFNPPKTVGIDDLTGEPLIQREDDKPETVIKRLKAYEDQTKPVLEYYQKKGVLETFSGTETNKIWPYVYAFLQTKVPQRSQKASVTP
# Sequence of protein kinases (human kinome) (Homo sapiens, UniProt Q8TDR2) (Q8TDR2 whole entry): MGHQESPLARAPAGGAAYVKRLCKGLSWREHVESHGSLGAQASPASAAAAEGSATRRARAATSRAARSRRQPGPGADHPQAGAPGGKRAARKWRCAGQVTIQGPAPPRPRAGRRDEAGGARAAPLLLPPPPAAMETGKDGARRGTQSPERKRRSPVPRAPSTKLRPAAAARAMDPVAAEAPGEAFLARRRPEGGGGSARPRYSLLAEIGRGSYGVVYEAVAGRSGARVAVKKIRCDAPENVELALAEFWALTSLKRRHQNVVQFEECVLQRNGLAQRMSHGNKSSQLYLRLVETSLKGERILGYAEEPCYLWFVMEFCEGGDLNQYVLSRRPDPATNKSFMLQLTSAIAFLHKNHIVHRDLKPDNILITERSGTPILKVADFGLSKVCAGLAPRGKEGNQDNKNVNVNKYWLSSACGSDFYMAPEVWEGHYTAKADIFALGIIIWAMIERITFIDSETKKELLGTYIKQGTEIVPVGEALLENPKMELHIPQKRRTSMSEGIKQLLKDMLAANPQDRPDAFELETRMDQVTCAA
structure (smiles),measurement,setting,value
CNC(=O)c1ccccc1Nc1cc(Nc2ccc(N3CCN(CCOCCOCCNC(=O)CNc4cccc5c4C(=O)N(C4CCC(=O)NC4=O)C5=O)CC3)cc2OC)ncc1C(F)(F)F (centres unmarked) [MFH.5.103.1],logFC FASTKD5,[1]; experiment wp076,−0.3493
same,logFC AK3 (Q9UIJ7-1),[2]; experiment wp076,−0.431
CC(=O)c1c(C)c2cnc(Nc3ccc(N4CCN(CCOCCOCCOCCNC(=O)COc5cccc6c5C(=O)N(C5CCC(=O)NC5=O)C6=O)CC4)cn3)nc2n(C2CCCC2)c1=O (centres unmarked) [BSJ.03.123],logFC AK4 (P27144),[3]; experiment wp084,−0.5103
same,logFC FASTKD1 (Q53R41),[4]; experiment wp084,−0.5242
same,logFC FASTKD5,[1]; experiment wp084,−0.5926
same,logFC AK3 (Q9UIJ7-1),[2]; experiment wp084,−0.4577
O=C(COc1cccc2c1C(=O)N(C1CCC(=O)NC1=O)C2=O)NCCCCCCCC(=O)NC1(c2ccc(-c3nc4ccn5c(=O)[nH]nc5c4cc3-c3ccccc3)cc2)CCC1 (centres unmarked) [INY.01.140.1],logFC AK4 (P27144),[3]; experiment wp081,−0.4309
same,logFC FASTKD1 (Q53R41),[4]; experiment wp081,−0.4808
same,logFC FASTKD5,[1]; experiment wp081,−0.4182
same,logFC AK3 (Q9UIJ7-1),[2]; experiment wp081,−0.4102
Cc1cnc(Nc2ccc(N3CCN(CCOCCOCCNC(=O)COc4cccc5c4C(=O)N(C4CCC(=O)NC4=O)C5=O)CC3)cc2)nc1Nc1cccc(S(=O)(=O)NC(C)(C)C)c1 (centres unmarked) [JWG.118],logFC AK4 (P27144),[3]; experiment wp071,−0.5314
same,logFC AK3 (Q9UIJ7-1),[2]; experiment wp071,−0.4221
"Cc1ccc(NC(=O)c2cccc(C(F)(F)F)c2)cc1N1Cc2cnc(Nc3ccc(N4CCN(Cc5cn(CCCCCOc6cccc7c6C(=O)N(C6CCC(=O)NC6=O)C7=O)nn5)CC4)nc3)nc2N(C)C1=O (centres unmarked) [DB0646, N-(3-(7-((6-(4-((1-(5-((2-(2,6-Dioxopiperidin-3-yl)-1,3-dioxoisoindolin-4-yl)oxy)pentyl)-1H-1,2,3-triazol-4-yl)methyl)piperazin-1-v)pyridin-3-yl)amino)-1-methyl-2-oxo-1,4-dihydropyrimido[4,5-d]pyrimidin-3(2H)-yl)-4-methylphenyl)-3-(trifluoromethyl)benzamide]",logFC PFKFB3,[5]; experiment wp045,−0.5182
same,logFC PFKFB3,"[5]; experiment wp160, 8 hr",−0.3754
CC(C)(C)c1nc(-c2cccc(NS(=O)(=O)c3c(F)cccc3F)c2F)c(-c2ccnc(NCCOCCNC(=O)CCOCCOCCNc3cccc4c3C(=O)N(C3CCC(=O)NC3=O)C4=O)n2)s1 (centres unmarked) [DD.03.106],logFC AK4 (P27144),"[3]; experiment wp147, 4 uM",−0.5652
same,logFC FASTKD1 (Q53R41),"[4]; experiment wp147, 4 uM",−0.6262
same,logFC FASTKD5,"[1]; experiment wp147, 4 uM",−0.8688
same,logFC AK3 (Q9UIJ7-1),"[2]; experiment wp147, 4 uM",−0.7202
Cc1ccc(NC(=O)c2cccc(C(F)(F)F)c2)cc1N1Cc2cnc(Nc3ccc(N4CCN(CCCCC(=O)N[C@H](C(=O)N5C[C@H](O)C[C@H]5C(=O)N[C@@H](C)c5ccc(-c6scnc6C)cc5)C(C)(C)C)CC4)nc3)nc2N(C)C1=O [DB1113],logFC STK35,"[6]; Accession Q8TDR2, experiment wp168, direction down",−0.7606
same,logFC STK35,"[6]; STK35 (Q8TDR2), experiment wp168",−0.7606
same,logFC PFKFB3,[5]; experiment wp168,−0.3724
CC(C)S(=O)(=O)c1ccccc1Nc1nc(Nc2ccc(N3CCN(CCOCCOCCNC(=O)CNc4cccc5c4C(=O)N(C4CCC(=O)NC4=O)C5=O)CC3)cc2)ncc1Cl (centres unmarked) [TL12.186],logFC STK35,"[6]; Accession Q8TDR2, experiment wp131, direction down",−0.4135
same,logFC STK35,"[6]; Accession Q8TDR2, experiment wp137, direction down",−0.4079
same,logFC STK35,"[6]; STK35 (Q8TDR2), experiment wp131",−0.4135
same,logFC STK35,"[6]; STK35 (Q8TDR2), experiment wp137",−0.4079
same,logFC PFKFB3,[5]; experiment wp131,−0.5643
same,logFC PFKFB3,[5]; experiment wp137,−0.4067
same,logFC FASTKD1 (Q53R41),[4]; experiment wp137,−0.3731
same,logFC FASTKD5,[1]; experiment wp137,−0.3409
CC(C)S(=O)(=O)c1ccccc1Nc1nc(Nc2ccc(N3CCN(CCOCCOCCC(=O)NCCNc4cccc5c4CN(C4CCC(=O)NC4=O)C5=O)CC3)cc2)ncc1Cl (centres unmarked) [TL13.97],logFC FASTKD1 (Q53R41),[4]; experiment wp137,−0.3684
Cc1ccc(NC(=O)c2cccc(C(F)(F)F)c2)cc1N1Cc2cnc(Nc3ccc(N4CCN(CCCOc5cccc6c5C(=O)N(C5CCC(=O)NC5=O)C6=O)CC4)nc3)nc2N(C)C1=O (centres unmarked) [DB0662],logFC PFKFB3,[5]; experiment wp168,−0.4517
Cn1c(=O)c(-c2c(Cl)cccc2Cl)cc2cnc(Nc3ccc(OCCNC(=O)CCCCCCNC(=O)COc4cccc5c4C(=O)N(C4CCC(=O)NC4=O)C5=O)cc3)nc21 (centres unmarked) [SB1.G.192.1],logFC FASTKD1 (Q53R41),[4]; experiment wp081,−0.4222
C=CCn1c(=O)c2cnc(Nc3ccc(N4CCN(CCCNc5cccc6c5C(=O)N(C5CCC(=O)NC5=O)C6=O)CC4)cc3)nc2n1-c1cccc(C(C)(C)O)n1 (centres unmarked) [ZNL.02.096],logFC PFKFB3,[5]; experiment wp118,−0.4051
same,logFC FASTKD1 (Q53R41),[4]; experiment wp056,−0.4079
same,logFC FASTKD1 (Q53R41),[4]; experiment wp118,−0.4559
same,logFC FASTKD5,[1]; experiment wp118,−0.4552
Cc1ccc(NC(=O)c2cccc(C(F)(F)F)c2)cc1N1Cc2cnc(Nc3ccc(N4CCN(CCCCCCOc5cccc6c5C(=O)N(C5CCC(=O)NC5=O)C6=O)CC4)nc3)nc2N(C)C1=O (centres unmarked) [DB0663],logFC PFKFB3,[5]; experiment wp045,−0.4221
Cc1ccc(C(=O)Nc2ccc(CN3CCN(CCCOCCOCCOCCNC(=O)COc4cccc5c4C(=O)N(C4CCC(=O)NC4=O)C5=O)CC3)c(C(F)(F)F)c2)cc1C#Cc1cnc2cccnn12 (centres unmarked) [SB1.G.187],logFC AK4 (P27144),[3]; experiment wp056,−0.4478
same,logFC FASTKD1,"[4]; Accession Q53R41, experiment wp056",−0.4811
same,logFC FASTKD5,[1]; experiment wp056,−0.4238
"Cc1ncsc1-c1ccc([C@H](C)NC(=O)[C@@H]2C[C@@H](O)CN2C(=O)[C@@H](NC(=O)CCCCCN2CCN(c3ccc(Nc4ncc5scc(-c6cccc(NS(C)(=O)=O)c6)c5n4)cc3)CC2)C(C)(C)C)cc1 [RSS0680, (2S,4R)-1-((S)-3,3-Dimethyl-2-(6-(4-(4-((7-(3-(methylsulfonamido)phenyl)thieno[3,2-d]pyrimidin-2-yl)amino)phenyl)piperazin-1-yl)hexanamido)butanoyl)-4-hydroxy-N—((S)-1-(4-(4-methylthiazol-5yl)phenyl)ethyl)pyrrolidine-2-carboxamide]",logFC STK17B (O94768),[7]; Experiment wp080,−1.375
same,logFC STK17B (O94768),[7]; Experiment wp117,−1.373
same,logFC,[7]; experiment wp080,−1.375
same,logFC,[7]; experiment wp117,−1.373
same,logFC STK35,"[6]; Accession Q8TDR2, experiment wp117, direction down",−0.3937
same,logFC STK35,"[6]; STK35 (Q8TDR2), experiment wp117",−0.3937
CN(C)C(=O)c1cc2cnc(Nc3ccc(N4CCN(CCCCNC(=O)COc5cccc6c5C(=O)N(C5CCC(=O)NC5=O)C6=O)CC4)cn3)nc2n1C1CCCC1 (centres unmarked) [BSJ.04.132],logFC AK4 (P27144),[3]; experiment wp084,−0.6551
same,logFC FASTKD1 (Q53R41),[4]; experiment wp084,−0.6747
same,logFC FASTKD5,[1]; experiment wp084,−0.7073
same,logFC AK3 (Q9UIJ7-1),[2]; experiment wp084,−0.6124
